Read-outs that look alike come from different tables or passages of the source.
What was measured:
KRAS G12A = KRAS G12A (Homo sapiens (Human), UniProt P01116, G12A); test: SOS-catalyzed nucleotide exchange assay (GNE), KRAS G12A; assay type: biochemical; conditions: TR-FRET, 60 min preincubation
Description: (§1) Procedure for SOS-Catalyzed Nucleotide Exchange Assay for KRAS-WT, G12C/D/V/A/R/S, G13D, Q61H, HRAS-WT, and NRAS-WT
(§2) Recombinant KRAS-G12C protein used in this assay has an additional triple mutation (C51S/C80L/C118S). Whereas KRAS-WT, G12D/V/A/S/R, G13D, Q61H, HRAS and NRAS are in context of their WT protein sequence background. Specifically, the SOS-catalyzed nucleotide exchange assay utilizes a preformed TR-FRET complex containing a specific biotinylated RAS protein (KRAS-WT, G12C/V/D/A/S/R, G13D, Q61H, HRAS-WT, NRAS-WT; described above) with Bodipy-GDP, and Terbium-streptavidin. Compounds are preincubated with this complex for 60 minutes. Subsequently, recombinant human SOS protein and unlabeled GTP are added to initiate the exchange reaction. Small molecule inhibitors stabilize the Bodipy-GDP complex whereas the untreated protein rapidly exchanges Bodipy-GDP for unlabeled GTP resulting in reduced TR-FRET signal.
(§3) To assemble the preformed TR-FRET complexes, each biotinylated RAS protein is diluted to 2 μM in an EDTA Buffer (20 mM HEPES pH 7.5, 50 mM sodium chloride, 10 mM EDTA, and 0.01% Tween) and incubated at room temperature for one hour. This mixture is then further diluted to 90 nM in an Assay Buffer (20 mM HEPES pH 7.5, 150 mM sodium chloride, 10 mM magnesium chloride, and 0.005% Tween) containing 15 nM of Terbium-Streptavidin (Invitrogen, catalog #PV3577) and 900 nM of Bodipy-GDP (Invitrogen, catalog #G22360) and incubated at room temperature for six hours. It should be noted that this preformed TR-FRET complex for each of the RAS protein were made ahead of time, aliquoted and stored at −80° C. until the day of the experiment.
(§4) Each test compound (10 mM stock in DMSO) is diluted in DMSO to make a final-10-point, 3-fold dilution and is acoustically dispensed into a 384-well assay plate (Corning, catalog #3820) using an Echo 550 (Labcyte). Each well of the assay plate receives 3 μL of a specific 3×RAS preformed TR-FRET complex and 3 μL of Assay Buffer and is incubated at room temperature for 60 minutes (preincubation time). Each well then receives 3 μL of 3× recombinant human SOS protein and GTP (Sigma, G8877) in Assay Buffer and is incubated at room temperature for 30 minutes (G13D), 60 minutes (KRAS WT/G12C/D, H/NRAS) or 90 minutes for G12A/R/S/V and Q61H. The final reaction in each well of 9 μL consists of 3 mM GTP, specific Ras and SOS proteins in the following concentrations: KRAS-G12C/SOS=3 nM/40 nM, KRAS-WT and G12D/SOS=1 nM/40 nM, KRAS-G12V/SOS=1.25 nM/160 nM, KRAS-G12A/S/SOS=1 nM/160 nM, KRAS-G12R/SOS=1 nM/320 nM, KRAS-Q61H/SOS=1 nM/320 nM, KRAS-G13D/SOS=1.25 nM/[…], HRAS-WT and NRAS-WT=1.25 nM/40 nM.
(§5) The time-resolved fluorescence resonance energy transfer (TR-FRET) signal is measured on an Envision (PerkinElmer) plate reader: Excitation filter=340 nm; emission1=495 nm; emission2=520 nm; dichroic mirror=D400/D505; delay time=[…]. The signal of each well is determined as the ratio of the emission at 520 nm to that at 495 nm. Percent effect of each well is determined after normalization to control wells containing DMSO (no effect) or a saturating concentration of inhibitor (max effect). The apparent effect as a function of compound concentration is fit to a four-parameter logistic equation.

[1] = test system: MKN-1 cells (amplified wild-type KRAS); test: Cellular phospho-ERK assay, MKN-1 cells; assay type: cell-based; conditions: 2 h, p-ERK vs. total ERK, read-out: MKN1 pERK IC50
Procedure: Procedure for Cellular Phospho-ERK Assay in KRAS Wild Type and Mutant (G12D, G12V) Cell Lines
MKN-1 cells (JCRB JCRB0252) containing amplified wild-type KRAS, were cultured in growth medium that contains RPMI 1640-GlutaMAX™-I (ThermoFisher Scientific 61870) containing 10% heat inactivated fetal bovine serum (ThermoFisher Scientific 10091148), 1 mM sodium pyruvate and 10 mM HEPES. AsPC-1 cells (ATCC® CRL-1682™), containing homozygous KRAS-G12D activating mutation, were cultured in T150 flask in growth medium (RPMI medium 1640-GlutaMAX™-I (ThermoFisher Scientific 61870) containing 10% fetal bovine serum (ThermoFisher Scientific 10091148)). SW620 cells (ATCC® CRL-227™) containing homozygous KRAS-G12V activating mutation, were cultured in growth medium that contains RPMI 1640-GlutaMAX™-I (ThermoFisher Scientific 61870) containing 10% heat inactivated fetal bovine serum (ThermoFisher Scientific 10091148).
Cells for the assay were harvested in growth medium after TrypLE (ThermoFisher scientific 12604021) digestion and were seeded in a 384-well collagen coated cell culture plate (Corning 356702) at a density of 10,000-15,000 cells/[…]/well, and incubated at 37° C., 5% CO2 overnight. The compound (with 10 mM stock concentration) dose-response titrations were prepared [30 μM final ERK detection assay concentration and 1:3 dilutions, 10-point dose response] and appropriate amounts (270 nL) of test compounds were dispensed in a 384-well intermediate plate using an Echo 550 liquid handler. 30 μL/well of RPMI medium 1640-GlutaMAX™-I was added to the intermediate plate and the contents of the intermediate plate (10 μL/well) were then transferred to the 384-well collagen coated cell culture plate, which was incubated at 37° C., 5% CO2 for 2 h. After removal of medium from the collagen coated cell culture plate, cells were lysed in lysis buffer from Alpha SureFire® Ultra™ Multiplex p-ERK and total ERK assay kit (PerkinElmer MPSU-PTERK) containing Halt™ Protease and Phosphatase inhibitor cocktail (ThermoFisher Scientific 78446) at room temperature with constant shaking at 300 rpm for 30 minutes. The cell lysates were then transferred to an OptiPlate-384 plate (PerkinElmer 6005620), and the phosphorylation of ERK (p-ERK) and total ERK levels were detected by Alpha SureFire® Ultra™ Multiplex p-EEK kit and total ERK assay kit (PerkinElmer MPSU-PTERK) following the manufacturer's protocol. Assay plates were read on a EnVision Multimode Plate Reader (PerkinElmer), and the ratio of p-ERK vs. total ERK in each well was used as the final readout. Dose response curves were analyzed using a 4-parameter logistic model to calculate IC50 values using Spotfire software.

KRAS Q61H = KRAS Q61H (Homo sapiens (Human), UniProt P01116, Q61H); test: SOS-catalyzed nucleotide exchange assay (GNE), KRAS Q61H; assay type: biochemical; conditions: TR-FRET, 60 min preincubation
Description: as §1, §2, §3, §4, §5

NRAS = NRAS (Homo sapiens (Human), UniProt P01111); test: SOS-catalyzed nucleotide exchange assay (GNE), NRAS-WT; assay type: biochemical; conditions: TR-FRET, 60 min preincubation
Description: as §1, §2, §3, §4, §5

Sequence of KRAS Q61H (P01116 other isoform, or with tags, fused parts or gaps Q61H (already in the parent)): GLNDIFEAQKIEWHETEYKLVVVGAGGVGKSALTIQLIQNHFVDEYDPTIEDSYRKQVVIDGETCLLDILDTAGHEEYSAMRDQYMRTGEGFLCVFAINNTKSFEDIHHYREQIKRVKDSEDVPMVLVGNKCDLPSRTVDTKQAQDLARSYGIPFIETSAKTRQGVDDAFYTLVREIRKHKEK
Sequence of KRAS G12A (P01116 other isoform, or with tags, fused parts or gaps G12A (already in the parent)): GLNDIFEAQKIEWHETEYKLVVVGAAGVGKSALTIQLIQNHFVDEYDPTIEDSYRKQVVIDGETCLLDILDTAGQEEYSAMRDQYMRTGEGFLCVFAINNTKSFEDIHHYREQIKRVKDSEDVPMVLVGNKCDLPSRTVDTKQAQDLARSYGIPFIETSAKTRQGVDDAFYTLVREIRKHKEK
Sequence of NRAS (P01111 other isoform, or with tags, fused parts or gaps): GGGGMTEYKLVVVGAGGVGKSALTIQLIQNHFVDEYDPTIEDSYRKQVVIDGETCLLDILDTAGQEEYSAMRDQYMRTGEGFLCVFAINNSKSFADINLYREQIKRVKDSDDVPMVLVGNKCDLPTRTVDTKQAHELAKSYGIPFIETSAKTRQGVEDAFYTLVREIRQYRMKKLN

Row | IC50 ([1]; Homo sapiens) | SMILES | IC50 (KRAS G12A) | IC50 [1] | IC50 (KRAS Q61H) | IC50 (NRAS)
1 |  | F/C=C1/CN2CCC[C@@]2(COc2nc3c4c(nc(-c5c(C6CC6)c(Cl)cc6[nH]ncc56)c(F)c4n2)OC[C@@H]2COCCCN32)C1 [Ex-1, (8aS)-5-(6-chloro-5-cyclopropyl-1H-indazol-4-yl)-4-fluoro-2-(((S,Z)-2-(fluoromethylene)tetrahydro-1H-pyrrolizin-7a(5H)-yl)methoxy)-8a,9,12,13-tetrahydro-8H,11H-7,10-dioxa-1,3,6,13a-tetraazanaphtho[1,8-ab]heptalene] | < 0.69 nM | 9.1 nM | 1.4 nM | > 11100 nM
2 |  | CCc1c(F)ccc2cc3[nH]ncc3c(-c3nc4c5c(nc(OC[C@@]67CCCN6C[C@H](F)C7)nc5c3F)N3CCCOC[C@H]3CO4)c12 [Ex-2, (8aS)-5-(5-ethyl-6-fluoro-1H-benzo[f]indazol-4-yl)-4-fluoro-2-(((2R,7aS)-2-fluorotetrahydro-1H-pyrrolizin-7a(5H)-yl)methoxy)-8a,9,12,13-tetrahydro-8H,11H-7,10-dioxa-1,3,6,13a-tetraazanaphtho[1,8-ab]heptalene] | < 0.69 nM | 7.9 nM | 1.2 nM | 7020 nM
3 | 9.7 nM | Fc1c(-c2c(C3CC3)c(Cl)cc3[nH]ncc23)nc2c3c(nc(OC[C@@]45CCCN4C[C@H](F)C5)nc13)N1CCCOC[C@H]1CO2 [Ex-3, (8aS)-5-(6-chloro-5-cyclopropyl-1H-indazol-4-yl)-4-fluoro-2-(((2R,7aS)-2-fluorotetrahydro-1H-pyrrolizin-7a(5H)-yl)methoxy)-8a,9,12,13-tetrahydro-8H,11H-7,10-dioxa-1,3,6,13a-tetraazanaphtho[1,8-ab]heptalene] |  |  |  | 
4 | 6.6 nM | CCc1c(F)ccc2cc3[nH]ncc3c(-c3nc4c5c(nc(OC[C@@]67CCCN6C/C(=C\F)C7)nc5c3F)N3CCCOC[C@H]3CO4)c12 [Ex-4, (8aS)-5-(5-ethyl-6-fluoro-1H-benzo[f]indazol-4-yl)-4-fluoro-2-(((S,Z)-2-(fluoromethylene)tetrahydro-1H-pyrrolizin-7a(5H)-yl)methoxy)-8a,9,12,13-tetrahydro-8H,11H-7,10-dioxa-1,3,6,13a-tetraazanaphtho[1,8-ab]heptalene] | < 0.69 nM |  | 1 nM | 2820 nM
5 | 4.3 nM | F/C=C1\CN2CCC[C@@]2(COc2nc3c4c(nc(-c5c(C6(F)CC6)c(Cl)cc6[nH]ncc56)c(F)c4n2)OC[C@@H]2COCCCN32)C1 [Ex-5, (8aS)-5-(6-chloro-5-(1-fluorocyclopropyl)-1H-indazol-4-yl)-4-fluoro-2-(((S,Z)-2-(fluoromethylene)tetrahydro-1H-pyrrolizin-7a(5H)-yl)methoxy)-8a,9,12,13-tetrahydro-8H,11H-7,10-dioxa-1,3,6,13a-tetraazanaphtho[1,8-ab]heptalene] | 0.83 nM |  | 0.97 nM | > 11100 nM
6 | 14 nM | CCc1c(F)ccc2cc3[nH]nc(C)c3c(-c3nc4c5c(nc(OC[C@@]67CCCN6C[C@H](F)C7)nc5c3F)N3CCCOC[C@H]3CO4)c12 [Ex-6, (8aS)-5-(5-ethyl-6-fluoro-3-methyl-1H-benzo[f]indazol-4-yl)-4-fluoro-2-(((2R,7aS)-2-fluorotetrahydro-1H-pyrrolizin-7a(5H)-yl)methoxy)-8a,9,12,13-tetrahydro-8H,11H-7,10-dioxa-1,3,6,13a-tetraazanaphtho[1,8-ab]heptalene] | 1 nM |  | 1.8 nM | 10000 nM
7 |  | CCc1c(F)ccc2cc3[nH]nc(C)c3c(-c3nc4c5c(nc(OC[C@@]67CCCN6C/C(=C\F)C7)nc5c3F)N3CCCOC[C@H]3CO4)c12 [Ex-7, (8aS)-5-(5-ethyl-6-fluoro-3-methyl-1H-benzo[f]indazol-4-yl)-4-fluoro-2-(((S,Z)-2-(fluoromethylene)tetrahydro-1H-pyrrolizin-7a(5H)-yl)methoxy)-8a,9,12,13-tetrahydro-8H,11H-7,10-dioxa-1,3,6,13a-tetraazanaphtho[1,8-ab]heptalene] | 1.3 nM | 12 nM | 2.8 nM | 8980 nM
